The NIST ThermoML archive (doi:10.1016/j.fluid.2012.08.009)

Settings: Liquid; for vapor or sublimation pressure: Ebulliometric method (Recirculating still); for Normal boiling temperature: Siwoloboff method

CN1CCCC1=O [N-methylpyrrolidone]
Settings | Normal boiling temperature [°C] | vapor or sublimation pressure [kPa]
– | 202.14 | –
380.76 K | – | 4.742
388.05 K | – | 6.361
400.39 K | – | 10.29
411.34 K | – | 15.22
420.9 K | – | 20.97
432.23 K | – | 30.08
441.78 K | – | 39.96
451.08 K | – | 52.18
457.44 K | – | 62.11
475.79 K | – | 99.4

CCO[Si](C)(OCC)c1ccc(C)cc1 [diethoxy(methyl)(p-tolyl)silane]
Settings | Normal boiling temperature [°C] | vapor or sublimation pressure [kPa]
– | 239.57 | –
394.65 K | – | 2
402.86 K | – | 3
409.39 K | – | 4
414.72 K | – | 5
419.19 K | – | 6
423.25 K | – | 7
429.82 K | – | 9
435.35 K | – | 11
442.33 K | – | 14
448.16 K | – | 17
453.16 K | – | 20
457.61 K | – | 23
461.72 K | – | 26
465.36 K | – | 29
468.68 K | – | 32
471.81 K | – | 35
474.73 K | – | 38
477.27 K | – | 41
479.82 K | – | 44
482.24 K | – | 47
484.62 K | – | 50
486.87 K | – | 53

CCO[Si](C)(OCC)c1cccc(C)c1 [diethoxy(methyl)(m-tolyl)silane]
Settings | Normal boiling temperature [°C] | vapor or sublimation pressure [kPa]
– | 235.8 | –
391.91 K | – | 2
400.12 K | – | 3
406.47 K | – | 4
411.84 K | – | 5
416.3 K | – | 6
420.23 K | – | 7
426.81 K | – | 9
432.31 K | – | 11
439.13 K | – | 14
444.83 K | – | 17
449.84 K | – | 20
454.26 K | – | 23
458.23 K | – | 26
461.73 K | – | 29
465.1 K | – | 32
468.22 K | – | 35
471.02 K | – | 38
473.69 K | – | 41
476.21 K | – | 44
478.56 K | – | 47
480.85 K | – | 50
483.08 K | – | 53
485.67 K | – | 57
488.08 K | – | 61

CCO[Si](C)(OCC)c1ccccc1C [diethoxy(methyl)(o-tolyl)silane]
Settings | Normal boiling temperature [°C] | vapor or sublimation pressure [kPa]
– | 239.83 | –
393.45 K | – | 2
401.5 K | – | 3
407.98 K | – | 4
413.33 K | – | 5
417.79 K | – | 6
421.8 K | – | 7
431.54 K | – | 10
439.05 K | – | 13
445.46 K | – | 16
450.67 K | – | 19
455.4 K | – | 22
459.55 K | – | 25
463.3 K | – | 28
466.73 K | – | 31
469.94 K | – | 34
472.92 K | – | 37
475.72 K | – | 40
478.35 K | – | 43
480.89 K | – | 46
483.26 K | – | 49
